# Results: paper PMC12196476, “New Nitrogen-, Oxygen-, and Sulfur-Containing Heterocyclic Compounds as Anti-Colon Cancer Agents: Synthesis, Multitargeted Evaluations, Molecular Docking Simulations and ADMET Predictions” (Pharmaceuticals, 2025)
# What was measured:
# [1] = system: Bax, Bcl-2 and Casp-3 genes expression in HCT-116 cells; assay: qRT-PCR of Bax, Bcl-2 and Casp-3 gene expression, HCT-116; type: cell-based, human; conditions: 30 µg/mL, 48 h
# Procedure: To investigate molecular events downstream of ROS generation, we evaluated mRNA expression levels of key regulators of mitochondrial apoptosis—Bax and Bcl-2—using qRT-PCR. […] As a result, the Bax/Bcl-2 ratios were calculated to be 12.63 in LoVo cells and 8.71 in HCT-116 cells, reflecting a pronounced pro-apoptotic shift. This alteration in the Bax/Bcl-2 ratio strongly supports the activation of the mitochondrial apoptotic pathway.
# To confirm activation of the execution phase of apoptosis, Casp-3 mRNA levels were evaluated by qRT-PCR.
# The expression levels of these genes were determined using a quantitative real-time PCR technique. […]
# S3.2.9. Quantification of the Expression Levels of Bax, Bcl-2 and Caspase-3 Genes
# Human colon cancer cell lines (HCT-116 and LoVo) were cultured for 24 h in a 25 mL flask at
# a density of 1 * 10^6 cells/flask as described in section S3.2.4. Cells were treated with 30 µg/mL
# of compound 3d in 2 mL of fresh medium containing 1% FBS, or with 0.25 % DMSO as a
# negative control, for 48 h. Afterwards, cells were washed with ice-cold phosphate-buffered
# saline (PBS) and adherent cells were detached using trypsin solution.
# Table S7 lists primers amplifying 100-200 bp of Bax, Bcl-2 and Caspase-3 genes. These primers
# were designed using primer blast software (https://www.ncbi.nlm.nih.gov/tools/primer-
# Table S7. Primer sequences for Bax, Bcl-2, Caspase-3, and GAPDH (control)
# Gene Primer sequence (5’ to 3’)
# Bcl-2 F 5’-[…] -3’,
# Caspase 3 F 5’- […]-3’,
# GAPDH F 5’- […]-3’
# • Reverse-Transcription PCR (RT-PCR)
# The total RNA was extracted from untreated and treated cells using the RNeasy Mini Kit
# (Qiagen, DE). A Nanodrop 8000 spectrophotometer (Thermo Fisher Scientific, USA) was
# used to check the RNA purity and quality. The Hyperscript Kit (GeneAll, KR) and random
# hexamers (GeneAll, KR) were used as described in the manufacturer’s protocol to reverse-
# transcript 1µg of RNA from each sample into cDNA.
# • Quantitative real-time PCR
# The mRNA expression of Bax, Bcl-2, and Caspase-3 were measured using QuantStudio
# 7Flex Detection System (Applied Biosystems, USA). The iScript One-Step RT-PCR Kit with
# SYBR Green (Cat no: 170-8892; Bio-Rad, CA, USA) was used to carry out the reactions for
# the synthesis of cDNA. Each cDNA sample (5 µl) was added in a 20 µL PCR mixture
# LoVo cells = assay: Mitochondrial membrane potential (TMRE staining), LoVo; type: cell-based, human; conditions: 30 µg/mL, 48 h
# Procedure: To assess mitochondrial integrity, TMRE staining was used to measure ΔΨm.
# The mitochondrial transmembrane potential was measured using a tetramethylrhodamine, ethyl ester (TMRE) mitochondrial membrane potential assay kit. […]
# medium served used as negative and positive controls, respectively. Percentages of viable cells […]
# wells (final concentration of 100 μg/mL), compared to the negative control, and expressed as mean value (%) ± SD from two replicates. Graphing dose-response curves representing the compound […]
# (HUVECs) at final concentration of 100 μg/mL . HUVECs were grown in Dulbecco’s Modified Eagle’s Medium supplemented with 10% FBS, 2 mM glutamine (Sigma Aldrich), 100 units/mL penicillin and […] streptomycin (Life Technologies; Paisley, UK).
# S3.2.5. Cell cycle assay.
# HCT-116 and LoVo cultures upon treatment with compound 3d. HCT-116 and LoVo carcinoma […]
# μg/mL for 48 h. […] Then, cells […]
# were fixed by mixing […] of 90% cold ethanol and stained with propidium iodide (PI) for 1 h at 37 °C. […]
# of stained cancerous cells were determined. […]
# carcinoma cells treated with compound 3d was assessed using the TMRE Mitochondrial Membrane […]
# for TMRE staining. TMRE was excited using a 488 nm laser and detected in the FL2 channel at 575 […]
# S3.2.9. Quantification of the Expression Levels of Bax, Bcl-2 and Caspase-3 Genes […]
# [2] = relative to untreated controls, normalized to GAPDH
compound,measurement,setting,value
"COc1cc(/C=N/c2ncnc3sc4c(c23)CCCC4)cc(OC)c1OC [Compound 3d, (E)-N-(5,6,7,8-Tetrahydrobenzo[4,5]thieno[2,3-d]pyrimidin-4-yl)-1-(3,4,5-trimethoxyphenyl)methanimine]","Bax/Bcl-2 ratio, HCT-116 cells",[1],8.71
same,"Bax mRNA expression, fold of control (HCT-116)",[1]; [2],3.57 ± 0.18 fold
same,"Bcl-2 mRNA expression, fold of control (HCT-116)",[1]; [2],0.41 ± 0.04 fold
same,"Casp-3 mRNA expression, fold of control (HCT-116)",[1]; [2],4.50 ± 0.40 fold
same,"Reduction of mitochondrial membrane potential (ΔΨm), LoVo cells",LoVo cells,60.23 ± 1.87%
